# Results as given in patent US7226931B2, “(R/S) rifamycin derivatives, their preparations and pharmaceutical compositions” (priority 2004, dated 2007).
# Like-named read-outs stand apart in the source and are kept apart here.
# Tests used:
# [1] = system: Staphylococcus aureus MT1222 gyrA^A116E grlB^S80F; experiment: MIC by microbroth dilution, quinolone-resistant S. aureus MT1222; format: cell-based
# Description: (§1) Representative compounds of the formula (I) were assayed for antimicrobial activity as follows: Minimum Inhibitory Concentrations (MICs) were determined by the microbroth dilution method as per NCCLS guidelines (National Committee for Clinical Laboratory Standards, 2000). All growth incubations were conducted at 37° C. Bacterial cultures were tested in the following bacteriological media: S. aureus, S. epidermidis in Cation-Adjusted Mueller-Hinton Broth, S. pneumoniae in THY Broth supplemented with 1 mg/mL catalase under 5% CO2 atmosphere, S. pyogenes in THY Broth, E. faecalis in BHI Broth, H. influenzae in BHI Broth supplemented with 0.75 μL of 1 mg/mL NAD and 150 μL of 1 mg/ml hematin per 5 mL.
# (§2) S. aureus ATCC 29213, S. epidermidis ATCC 12228, S. pneumoniae ATCC6303, S. pyogenes ATCC 19615 and E. faecalis ATCC 29212 are rifampin-susceptible Gram-positive strains. […] H. influenzae ATCC 10211 is Gram-negative bacteria.
# [2] = system: pathogenic microorganisms; experiment: Antibacterial activity, influence of linker chirality (R versus S); format: cell-based; conditions: (R)- versus (S)-absolute configuration at the linker carbon
# Description: as §1, with “As already mentioned, the compounds of formula I or their salts have antibacterial properties and activities against rifampin and quinolone resistant strains. […] Representative” for “Representative”
# The antibacterial activities of the compounds of the formula (I) are influenced by the chirality of the linker.
# S. pneumoniae ATCC6303 = experiment: MIC by microbroth dilution, S. pneumoniae ATCC6303; format: cell-based, Streptococcus pneumoniae
# Description: as §1, §2
# S. pyogenes ATCC 19615 = experiment: MIC by microbroth dilution, S. pyogenes ATCC 19615; format: cell-based, Streptococcus pyogenes
# Description: as §1, §2
# [3] = system: S. epidermidis ATCC 12228; experiment: MIC by microbroth dilution, S. epidermidis ATCC 12228; format: cell-based, Staphylococcus epidermidis
# Description: as §1, §2
# S. aureus ATCC 29213 = experiment: MIC by microbroth dilution, S. aureus ATCC 29213 (rifS); format: cell-based, Staphylococcus aureus
# Description: as §1, §2
# [4] = system: S. aureus ATCC 29213 RpoB^D417Y; experiment: microbe, parasite or virus in culture; format: cell-based; conditions: Staphylococcus aureus
# Description: as §1, §2
# H. influenzae ATCC 10211 = experiment: MIC by microbroth dilution, H. influenzae ATCC 10211; format: cell-based, Haemophilus influenzae
# Description: as §1, §2
# [5] = MIC by microbroth dilution, panel of rifampin-susceptible Gram-positive strains; format: cell-based; conditions: range over the rifampin-susceptible Gram-positive strains
# Description: as §1, §2
# [6] = read-out: Antimicrobial activity (MIC)
# [7] = Streptococcus pneumoniae, ATCC6303, read-out: Antimicrobial activity (MIC)
# [8] = Streptococcus pyogenes, ATCC19615, read-out: Antimicrobial activity (MIC)
# [9] = Staphylococcus epidermidis, ATCC12228, read-out: Antimicrobial activity (MIC)
# [10] = Staphylococcus aureus, ATCC29213, read-out: Antimicrobial activity (MIC)
# [11] = ATCC29213, read-out: Antimicrobial activity (MIC)
# [12] = Haemophilus influenzae ATCC10211, rifS, read-out: Antimicrobial activity (MIC)
# [13] = Streptococcus pneumoniae ATCC6303, rifS, read-out: Antimicrobial activity (MIC)
# [14] = Streptococcus pyogenes ATCC19615, rifS, read-out: Antimicrobial activity (MIC)
# [15] = Staphylococcus epidermidis ATCC12228, rifS, read-out: Antimicrobial activity (MIC)
# [16] = Staphylococcus aureus ATCC29213, rifS, read-out: Antimicrobial activity (MIC)
Structure (SMILES),"MIC [1, 6]",antibacterial activity compared with example 2 ((S)-configuration) [2],MIC (S. pneumoniae ATCC6303; [7]),MIC (S. pyogenes ATCC 19615; [8]),"MIC [3, 9]",MIC (S. aureus ATCC 29213; [10]),"MIC [4, 11]",MIC (H. influenzae ATCC 10211; [12]),MIC [1],MIC (S. pneumoniae ATCC6303; [13]),MIC (S. pyogenes ATCC 19615; [14]),"MIC [3, 15]",MIC (S. aureus ATCC 29213; [16]),MIC ([4]; ATCC29213),"MIC (H. influenzae ATCC 10211; Haemophilus influenzae, ATCC10211, Gram-negative bacteria (H. influenzae ATCC 10211, 'these organisms'), read-out: MICs)",MIC [5]
"CO[C@H]1/C=C/O[C@@]2(C)Oc3c(C)c(O)c4c(O)c(c(/C=N/N5CCC(N(C)C6([C@@H]7CCN(c8c(F)cn9c(=O)c(C(=O)O)cc(C%10CC%10)c9c8C)C7)CC6)CC5)c(O)c4c3C2=O)NC(=O)/C(C)=C\C=C\[C@H](C)[C@H](O)[C@@H](C)[C@@H](O)[C@@H](C)[C@H](OC(C)=O)[C@@H]1C [Example 1, (R)-3-[(4-{1-[1-(3-Carboxy-1-cyclopropyl-7-fluoro-9-methyl-4-oxo-4H-quinolizine-8-yl)-pyrrolidin-3-yl-cyclopropyl]-methylamino}-piperidin-1-ylimino)-methylenyl]-rifamycin SV]",0.06 µg/mL,more active,0.015 µg/mL,0.015 µg/mL,0.06 µg/mL,0.06 µg/mL,0.5 µg/mL,0.5 µg/mL,,,,,,,,
"CO[C@H]1/C=C/O[C@@]2(C)Oc3c(C)c(O)c4c(O)c(c(/C=N/N5CCC(N(C)C6([C@H]7CCN(c8c(F)cn9c(=O)c(C(=O)O)cc(C%10CC%10)c9c8C)C7)CC6)CC5)c(O)c4c3C2=O)NC(=O)/C(C)=C\C=C\[C@H](C)[C@H](O)[C@@H](C)[C@@H](O)[C@@H](C)[C@H](OC(C)=O)[C@@H]1C [Example 2, (S)-3-[(4-{1-[1-(3-Carboxy-1-cyclopropyl-7-fluoro-9-methyl-4-oxo-4H-quinolizine-8-yl)-pyrrolidin-3-yl-cyclopropyl]-methylamino}-piperidin-1-ylimino)-methylenyl]-rifamycin SV]",0.24 µg/mL,,0.015 µg/mL,0.03 µg/mL,0.12 µg/mL,0.24 µg/mL,8 µg/mL,0.5 µg/mL,,,,,,,,
O=C(O)c1cn(C2CC2)c2cc(N3CCNCC3)c(F)cc2c1=O [ciprofloxacin],8 µg/mL,,,,,,0.25 µg/mL,0.008 µg/mL,8 µg/mL,1 µg/mL,0.5 µg/mL,0.125 µg/mL,0.25 µg/mL,,,
CO[C@H]1/C=C/O[C@@]2(C)Oc3c(C)c(O)c4c(O)c(c(/C=N/N5CCN(C)CC5)c(O)c4c3C2=O)NC(=O)/C(C)=C\C=C\[C@H](C)[C@H](O)[C@@H](C)[C@@H](O)[C@@H](C)[C@H](OC(C)=O)[C@@H]1C [rifampin],0.004 µg/mL,,,,,,> 256 µg/mL,0.24 µg/mL,,0.061 µg/mL,0.013 µg/mL,0.03 µg/mL,0.008 µg/mL,> 256 µg/mL,0.24 to 16 µg/mL,0.008 to 1 µg/mL
